Holding throughout (format): in vivo
Assay [1] concerns Japanese bulrush (Scirpus juncoides Roxb.). As to the kind of experiment: Test Example 1: herbicidal effect by soil application to paddy field. As to conditions: for herbicidal effect, Scirpus juncoides Roxb.: paddy field soil application, active ingredient 1,000 g per 1 hectare, wettable powder added dropwise to water surface the day after sowing, examined on the 21st day after application. The method, boiled down:
(§1)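 Plants were sown in flooded (3 cm) paddy soil and evaluated for herbicidal effect 21 days after soil application in a greenhouse.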

Assay [2] relates to heartshape false pickerelweed (Monochoria vaginalis (Burm.f.) C.Presl). Described as above. As to conditions: for herbicidal effect, Monochoria vaginalis (Burm. f.) C. Presl: paddy field soil application, active ingredient 1,000 g per 1 hectare, wettable powder added dropwise to water surface the day after sowing, examined on the 21st day after application. A digest of the protocol: as §1

In assay [3] the test system is early watergrass (Echinochloa oryzicola Vasing). Described as above. As to conditions: for herbicidal effect, Echinochloa oryzicola Vasing: paddy field soil application, active ingredient 1,000 g per 1 hectare, wettable powder added dropwise to water surface the day after sowing, examined on the 21st day after application. The method, boiled down: as §1
The subject of assay [4] is slender amaranth (Amaranthus viridis L.). Description: Test Example 2: herbicidal effect by soil application to upland field. As to conditions: soil surface spray, upland field soil, 1,000 g active ingredient per hectare, 21st day after application. How it is done: (§2) [table] Test Example 2 Test on Herbicidal Effect by Soil Application to Upland field In a 80 cm2 plastic pot, field soil was filled. Seeds of barnyardgrass (Echinochloa crus-galli (L.) P. Beauv. var. crus-galli), green foxtail (Setaria viridis (L.) P. Beauv.), velvetleaf (Abutilon theophrasti medicus), and slender amaranth (Amaranthus viridis L.) were sown and covered with soils. The wettable powder prepared according to Formulation Example 1 was diluted in water and a 1,000 liter equivalent amount per 1 hectare so that the active ingredient becomes 1,000 g per 1 hectare was uniformly sprayed on a soil surface using a small sprayer. Then, on the 21st day after the application to the plants grew in a greenhouse, the herbicidal effect was examined in accordance with a standard shown in Table 34.

Assay [5] relates to velvetleaf (Abutilon theophrasti medicus). The description is as above. The note with it: soil surface spray, upland field soil, 1,000 g active ingredient per hectare, 21st day after application. How it is done:
as §2

For assay [6], the system named is barnyardgrass (Echinochloa crus-galli (L.) P. Beauv. var. crus-galli). The assay is described as above. As to conditions: soil surface spray, upland field soil, 1,000 g active ingredient per hectare, 21st day after application. On the procedure:
as §2

Assay [7] has as its system green foxtail (Setaria viridis (L.) P. Beauv.). The description is as above. The note with it: soil surface spray, upland field soil, 1,000 g active ingredient per hectare, 21st day after application. On the procedure:
as §2

Assay [8] relates to slender amaranth (Amaranthus viridis L.). As to the kind of experiment: Test Example 3: herbicidal effect by application to upland field (foliage treatment). The note with it: 14th day after application. A digest of the protocol:
(§3)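 Sow in field soil; grow 2 weeks in greenhouse; spray foliage from above with wettable-powder dilution (1,000 g AI/ha, 1,000 L/ha); return to greenhouse; score effect at day 14 against a standard.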

The test system of assay [9] is velvetleaf (Abutilon theophrasti medicus). The description is as above. As to conditions: 14th day after application. The method, boiled down:
as §3

The test system of assay [10] is barnyardgrass (Echinochloa crus-galli (L.) P. Beauv. var. crus-galli). Described as above. The note with it: 14th day after application. The method, boiled down: as §3
Assay [11] relates to green foxtail (Setaria viridis (L.) P. Beauv.). The description is as above. As to conditions: 14th day after application. A digest of the protocol: as §3
The mark [12] stands for this setting: soil application to paddy field, rated by standard of Table 34.
Setting [13] is: foliage treatment, 1,000 g active ingredient per 1 hectare, greenhouse.
The mark [14] stands for this setting: foliage treatment, plants grown two weeks, 1,000 g active ingredient per hectare.

Regarding `O=C(C1=C(O)C2CCC(C2)C1=O)c1ccc(C(F)(F)F)n(-c2c(F)cccc2F)c1=O` (centres unmarked) [III-37], the “herbicidal effect, Scirpus juncoides Roxb.” value in assay [1] is 4 (70 to less than 90% of herbicidal effect and crop phytotoxicity). For the same compound, the “herbicidal effect, Monochoria vaginalis (Burm. f.) C. Presl” value (“herbicidal effect, Monochoria vaginalis” below) in assay [2] was 5 (90% or more of herbicidal effect and crop phytotoxicity). In addition, the “herbicidal effect, Echinochloa oryzicola Vasing” value in assay [3] is 5 (90% or more of herbicidal effect and crop phytotoxicity). In addition, in [4], the “herbicidal effect (index), Slender Amaranth” value was 4 (70 to less than 90% of herbicidal effect and crop phytotoxicity). For the same compound, the “herbicidal effect (index), Velvetleaf” value in [5] is 5 (90% or more of herbicidal effect and crop phytotoxicity). Moreover, the “herbicidal effect (index), Barnyardgrass” value in assay [6] is 4 (70 to less than 90% of herbicidal effect and crop phytotoxicity). For the same compound, the “herbicidal effect (index), Green Foxtail” value in [7] was 4 (70 to less than 90% of herbicidal effect and crop phytotoxicity).
For `Cn1ncc(C(=O)c2ccc(C(F)(F)F)n(CC3CCCO3)c2=O)c1OC(=O)c1c(Cl)cc(Cl)cc1Cl` (centres unmarked) [IV-133], in assay [1], the “herbicidal effect, Scirpus juncoides Roxb.” value is 5 (90% or more of herbicidal effect and crop phytotoxicity). In addition, the “herbicidal effect, Monochoria vaginalis” value in assay [2] was 5 (90% or more of herbicidal effect and crop phytotoxicity). In addition, the “herbicidal effect, Echinochloa oryzicola Vasing” value in assay [3] was 5 (90% or more of herbicidal effect and crop phytotoxicity). Besides, the “herbicidal effect (index), Slender Amaranth” value in assay [4] was 5 (90% or more of herbicidal effect and crop phytotoxicity). For the same compound, in assay [5], the “herbicidal effect (index), Velvetleaf” value was 4 (70 to less than 90% of herbicidal effect and crop phytotoxicity). Moreover, the “herbicidal effect (index), Barnyardgrass” value in assay [6] is 5 (90% or more of herbicidal effect and crop phytotoxicity). Besides, in [7], the “herbicidal effect (index), Green Foxtail” value is 3 (50 to less than 70% of herbicidal effect and crop phytotoxicity).
`CCCS(=O)(=O)Oc1c(C(=O)c2ccc(C(F)(F)F)n(-c3ccc(F)c(COC)c3)c2=O)cnn1C` [IV-94]: the “herbicidal effect, Scirpus juncoides Roxb.” value in assay [1] is 5 (90% or more of herbicidal effect and crop phytotoxicity). The “herbicidal effect, Monochoria vaginalis” value in assay [2] was 5 (90% or more of herbicidal effect and crop phytotoxicity). Also, the “herbicidal effect, Echinochloa oryzicola Vasing” value in assay [3] was 5 (90% or more of herbicidal effect and crop phytotoxicity). Moreover, in [4], the “herbicidal effect (index), Slender Amaranth” value was 5 (90% or more of herbicidal effect and crop phytotoxicity). Besides, in [5], the “herbicidal effect (index), Velvetleaf” value is 5 (90% or more of herbicidal effect and crop phytotoxicity). Also, in assay [6], the “herbicidal effect (index), Barnyardgrass” value was 5 (90% or more of herbicidal effect and crop phytotoxicity). Further, in [7], the “herbicidal effect (index), Green Foxtail” value is 4 (70 to less than 90% of herbicidal effect and crop phytotoxicity).
In the case of `N#CC(C(=O)c1ccc(C(F)(F)F)n(-c2ccccc2)c1=O)=C(O)C1CC1` [V-23], the “herbicidal effect (index), Scirpus juncoides Roxb.” value in assay [1] (setting [12]) was 5 (90% or more of herbicidal effect and crop phytotoxicity). In [2] (setting [12]), the “herbicidal effect (index), Monochoria vaginalis (Burm.f.) C.Presl” value was 5 (90% or more of herbicidal effect and crop phytotoxicity). Also, the “herbicidal effect (index), Echinochloa oryzicola Vasing” value in assay [3] (setting [12]) was 5 (90% or more of herbicidal effect and crop phytotoxicity). Further, the “herbicidal effect (index), Slender Amaranth” value in assay [4] was 5 (90% or more of herbicidal effect and crop phytotoxicity). The “herbicidal effect (index), Velvetleaf” value in assay [5] was 5 (90% or more of herbicidal effect and crop phytotoxicity). The “herbicidal effect (index), Barnyardgrass” value in assay [6] is 5 (90% or more of herbicidal effect and crop phytotoxicity). In addition, the “herbicidal effect (index), Green Foxtail” value in assay [7] was 5 (90% or more of herbicidal effect and crop phytotoxicity).
With `CCCS(=O)(=O)Oc1c(C(=O)c2ccc(C(F)(F)F)n(CCS(C)(=O)=O)c2=O)cnn1C` [IV-55], in assay [1], the “herbicidal effect, Scirpus juncoides Roxb.” value was 4 (70 to less than 90% of herbicidal effect and crop phytotoxicity). Moreover, in assay [2], the “herbicidal effect, Monochoria vaginalis” value is 5 (90% or more of herbicidal effect and crop phytotoxicity). Moreover, in assay [3], the “herbicidal effect, Echinochloa oryzicola Vasing” value was 4 (70 to less than 90% of herbicidal effect and crop phytotoxicity). For the same compound, the “herbicidal effect (index), Slender Amaranth” value in assay [4] was 5 (90% or more of herbicidal effect and crop phytotoxicity). Further, the “herbicidal effect (index), Velvetleaf” value in assay [5] was 4 (70 to less than 90% of herbicidal effect and crop phytotoxicity). Further, the “herbicidal effect (index), Barnyardgrass” value in assay [6] is 5 (90% or more of herbicidal effect and crop phytotoxicity). In addition, the “herbicidal effect (index), Green Foxtail” value in [7] was 5 (90% or more of herbicidal effect and crop phytotoxicity).
Consider `CCCS(=O)(=O)Oc1c(C(=O)c2ccc(C(F)(F)F)n(CCC=C(Cl)Cl)c2=O)cnn1C` [IV-31], for which the “herbicidal effect (index), Slender Amaranth” value in assay [4] was 5 (90% or more of herbicidal effect and crop phytotoxicity). Further, in [5], the “herbicidal effect (index), Velvetleaf” value is 4 (70 to less than 90% of herbicidal effect and crop phytotoxicity). In addition, the “herbicidal effect (index), Barnyardgrass” value in assay [6] is 4 (70 to less than 90% of herbicidal effect and crop phytotoxicity). Moreover, the “herbicidal effect (index), Green Foxtail” value in assay [7] is 3 (50 to less than 70% of herbicidal effect and crop phytotoxicity).
Turning to `COn1c(C(F)(F)F)ccc(C(=O)C2=C(O)CCCC2=O)c1=O` [I-202], the “herbicidal effect, Scirpus juncoides Roxb.” value in assay [1] was 5 (90% or more of herbicidal effect and crop phytotoxicity). Further, the “herbicidal effect, Monochoria vaginalis” value in assay [2] is 5 (90% or more of herbicidal effect and crop phytotoxicity). Moreover, the “herbicidal effect, Echinochloa oryzicola Vasing” value in assay [3] is 5 (90% or more of herbicidal effect and crop phytotoxicity). In addition, the “herbicidal effect (index), Slender Amaranth” value in assay [4] is 5 (90% or more of herbicidal effect and crop phytotoxicity). Also, the “herbicidal effect (index), Velvetleaf” value in assay [5] was 5 (90% or more of herbicidal effect and crop phytotoxicity). In addition, the “herbicidal effect (index), Barnyardgrass” value in assay [6] was 5 (90% or more of herbicidal effect and crop phytotoxicity). The “herbicidal effect (index), Green Foxtail” value in assay [7] is 5 (90% or more of herbicidal effect and crop phytotoxicity).
Take `CCCCCNn1c(C(F)(F)F)ccc(C(=O)C2=C(O)CCCC2=O)c1=O` [I-165]: the “herbicidal effect, Scirpus juncoides Roxb.” value in assay [1] is 5 (90% or more of herbicidal effect and crop phytotoxicity). Moreover, in [2], the “herbicidal effect, Monochoria vaginalis” value was 5 (90% or more of herbicidal effect and crop phytotoxicity). Moreover, the “herbicidal effect, Echinochloa oryzicola Vasing” value in assay [3] is 5 (90% or more of herbicidal effect and crop phytotoxicity). In addition, the “herbicidal effect (index), Slender Amaranth” value in [4] was 5 (90% or more of herbicidal effect and crop phytotoxicity). Besides, the “herbicidal effect (index), Velvetleaf” value in assay [5] is 5 (90% or more of herbicidal effect and crop phytotoxicity). Also, the “herbicidal effect (index), Barnyardgrass” value in [6] was 5 (90% or more of herbicidal effect and crop phytotoxicity). The “herbicidal effect (index), Green Foxtail” value in assay [7] was 3 (50 to less than 70% of herbicidal effect and crop phytotoxicity).
With `N#CC(C(=O)c1ccc(C(F)(F)F)n(CC(F)(F)F)c1=O)=C(O)C1CC1` [V-22], the “herbicidal effect (index), Slender Amaranth” value in assay [4] was 5 (90% or more of herbicidal effect and crop phytotoxicity). In assay [5], the “herbicidal effect (index), Velvetleaf” value was 5 (90% or more of herbicidal effect and crop phytotoxicity). The “herbicidal effect (index), Barnyardgrass” value in [6] is 4 (70 to less than 90% of herbicidal effect and crop phytotoxicity). Further, the “herbicidal effect (index), Green Foxtail” value in assay [7] is 4 (70 to less than 90% of herbicidal effect and crop phytotoxicity).
For `C=C(C)Cn1c(C(F)(F)F)ccc(C(=O)c2cnn(C)c2OC(C)=O)c1=O` [IV-180], the “herbicidal effect, Scirpus juncoides Roxb.” value in assay [1] was 5 (90% or more of herbicidal effect and crop phytotoxicity). In addition, in assay [2], the “herbicidal effect, Monochoria vaginalis” value was 5 (90% or more of herbicidal effect and crop phytotoxicity). In addition, the “herbicidal effect, Echinochloa oryzicola Vasing” value in [3] was 5 (90% or more of herbicidal effect and crop phytotoxicity). Besides, in assay [8] (setting [13]), the “herbicidal effect, Slender Amaranth” value was 5 (90% or more of herbicidal effect and crop phytotoxicity). Besides, the “herbicidal effect, Velvetleaf” value in assay [9] (setting [13]) is 5 (90% or more of herbicidal effect and crop phytotoxicity). Further, the “herbicidal effect, Barnyardgrass” value in assay [10] (setting [13]) was 5 (90% or more of herbicidal effect and crop phytotoxicity). Also, the “herbicidal effect, Green Foxtail” value in assay [11] (setting [13]) is 4 (70 to less than 90% of herbicidal effect and crop phytotoxicity).
`CC(CCCCn1c(C(F)(F)F)ccc(C(=O)C2=C(O)CCCC2=O)c1=O)=C(F)F` [I-28]: the “herbicidal effect, Scirpus juncoides Roxb.” value in assay [1] was 4 (70 to less than 90% of herbicidal effect and crop phytotoxicity). Also, the “herbicidal effect, Monochoria vaginalis” value in assay [2] is 5 (90% or more of herbicidal effect and crop phytotoxicity). In addition, in [3], the “herbicidal effect, Echinochloa oryzicola Vasing” value is 5 (90% or more of herbicidal effect and crop phytotoxicity). Further, the “herbicidal effect (index), Slender Amaranth” value in [8] (setting [14]) is 5 (90% or more of herbicidal effect and crop phytotoxicity). Also, in assay [9] (setting [14]), the “herbicidal effect (index), Velvetleaf” value is 5 (90% or more of herbicidal effect and crop phytotoxicity). Moreover, the “herbicidal effect (index), Barnyardgrass” value in assay [10] (setting [14]) was 5 (90% or more of herbicidal effect and crop phytotoxicity). Moreover, the “herbicidal effect (index), Green Foxtail” value in assay [11] (setting [14]) is 5 (90% or more of herbicidal effect and crop phytotoxicity).
